The values that follow come from publication PMC8507746, “The FHP01 DDX3X Helicase Inhibitor Exerts Potent Anti-Tumor Activity In Vivo in Breast Cancer Pre-Clinical Models” (Cancers, 2021).

Data set [1] in a line: Tolerability in xenograft study: body weight and organ histology. Type of data set: in vivo, athymic nude mice. On the procedure: Animal experiments were performed in accordance with current Italian legislation and the animal protocol has been reviewed and approved by Italian Ministero della Salute (authorization n. 886/2020-PR). The study was designed to verify the effect of newly synthetized molecule with DDX3X inhibitor activity administered via i.p at a concentration of 45 mg/kg on the tumor growth of xenograft MDA MB 231 human breast cancer cells. In the study, n refers to the number of tumors expressed on both flanks of the animals. The sample size was calculated by g-power calculator placing a predictable large (2-fold increase) effect size, alpha as 0.05, and a confidence interval of 95% and we set our experimental unit number of 10 (corresponding to 5 animals). Total number of animals used in the study was 10. Six-week-old athymic nude mice were purchased from Charles River Laboratories. Five animals in each cage acclimatized in our animal facilities for 5 days in individually ventilated cages. Animals were fed with the lab diet ad libitum and water was accessible at all times and kept under standard specific pathogen-free conditions of 12 h light/dark cycle. Observational analysis was performed at the beginning of experimental procedure to ensure animal wellbeing (Table S1). […]

In data set [2] the test system is MDA MB 231 tumor xenografts. Nature of the data set: MDA MB 231 tumor xenograft growth in athymic nude mice. Type of data set: in vivo. To be noted: for mean tumor volume: 45 mg/kg i.p. 3 times a week. Here is the method: Animal experiments were performed in accordance with current Italian legislation and the animal protocol has been reviewed and approved by Italian Ministero della Salute (authorization n. 886/2020-PR). The study was designed to verify the effect of newly synthetized molecule with DDX3X inhibitor activity administered via i.p at a concentration of 45 mg/kg on the tumor growth of xenograft MDA MB 231 human breast cancer cells. In the study, n refers to the number of tumors expressed on both flanks of the animals. The sample size was calculated by g-power calculator placing a predictable large (2-fold increase) effect size, alpha as 0.05, and a confidence interval of 95% and we set our experimental unit number of 10 (corresponding to 5 animals). Total number of animals used in the study was 10. Six-week-old athymic nude mice were purchased from Charles River Laboratories. Five animals in each cage acclimatized in our animal facilities for 5 days in individually ventilated cages. Animals were fed with the lab diet ad libitum and water was accessible at all times and kept under standard specific pathogen-free conditions of 12 h light/dark cycle. Observational analysis was performed at the beginning of experimental procedure to ensure animal wellbeing (Table S1).
To establish xenograft tumors, MDA MB 231 cells were cultured in media as described above. On the day of experiment, cells (2.8 × 10^6) were suspended in 150 μL PBS 1:1 Matrigel and injected subcutaneously on both size of the flank region of nude mice. In order to determine tumor volume by manual caliper, the greatest longitudinal diameter (length) and the greatest transverse diameter (width) were determined. Tumor volumes based on caliper measurements were calculated by the modified ellipsoidal formula Tumor volume = 1/2(length × width^2).
Group allocation and treatments: once tumors reached a mean size of 24.82 ± 2.56 mm^3, animals were allocated in two groups by minimization strategy according to tumor size: the treatment group received 100 μL of a 45 mg/kg FHP01 suspended in a vehicle consisting of 10% DMSO, 5% Tween 80, 85% H2O via i.p. injection three times per week for 4 weeks; the control group included animals treated with 100 μL of vehicle (10% DMSO, 5% Tween 80, 85% H2O). One control animal reached HEP and was sacrificed and was not account for in the analysis. […]
For the final statistics, the number of tumors analyzed was 8 in the control group (one animal died for unknown reasons as certified by the AWB designed veterinary) and 9 for the treated group (the volume of one tumor was considered outlier). Results were reported as tumor volume increase, normalizing the value of each measurement to the baseline value of each sample and expressed as mean ± SEM. […]

In data set [3] the test system is DDX3X and β-catenin in MDA MB 231 tumors. Nature of the data set: Western blot of DDX3X and β-catenin in tumors from treated mice. It is filed as in vivo, athymic nude mice. The conditions noted are these: 45 mg/kg i.p. three times per week for 4 weeks, individual tumors. Here is the method: Cells (1 × 10^5) were seeded in 6-well plates. After 24 h, cells were treated for indicated times with DMSO (vehicle) or FHP01 or XAV939 (Merck). After treatments, cells were washed with cold PBS and total protein extracts obtained by adding 80 µL of “RIPA Lysis buffer” (50 mM Tris-HCl pH 8.0, 150 mM NaCl, 0.5% Sodium deoxycholate, 0.1% SDS, 1% NP-40, 2 mM Orthovanadate, 2mM Sodium fluoride, 1mM Dithiothreitol and 1× protease inhibitors). After mechanicals detachment with cell scrapers, total lysates were collected in tubes, vortexed, and incubated for 15 min on ice. Tumors from mice were collected and disrupted by bead homogenization in Lysing Matrix D tubes using a FastPrep-24 5G homogenizer (MP Biomedicals, Solon, OH, USA) filled with “RIPA Lysis buffer” w:v. Next, samples were centrifuged for 10 min at 16,000× g, and supernatants were collected, representing total cell lysates.
Densitometric analysis of western blots was performed with NIH Image J (National Institutes of Health).

The subject of the next data set is PBMCs. Nature of the data set: Cell viability assay in peripheral blood mononuclear cells. It is filed as cell-based. The conditions noted are these: up to a concentration of 50 μM, 72 h. On the procedure: Two days before the assay, phytohemagglutinin-A (PHA) 2 µg/mL was added to the PBMC culture. Cells were seeded at 13 × 10^4 cells/well in triplicate and maintained at 37 °C in 5% CO2. After 24 h, cells were treated with 10 μM and 50 μM of indicated drugs. After 72 h incubation, cells were washed in PBS and harvested. Cell number of each sample was determined with Z2 Coulter Counter (Beckman Coulter), in triplicate. Data about cell viability were plotted in GraphPad Prism 8.0 software 100% viability corresponding to vehicle (DMSO) treated PBMCs.

Another data set has as its system T47D cells. The experiment in a line: Cell viability / cytotoxicity assay (cell counting). The conditions noted are these: Homo sapiens, 72 h. It is filed as cell-based. On the procedure: (§1) Cells were seeded at 3–5 × 10^4 cells/well density (depending on cell lines) in 12-well plates, in triplicate, and maintained at 37 °C in 5% CO2. After 24 h, cells were treated with different concentrations of indicated drugs in a range from 0 to 100 μM (0, 0.1, 1, 10, 50, 100 μM). After 72 h incubation, cells were washed in PBS and harvested. Cell number of each sample was determined with Z2 Coulter Counter (Beckman Coulter, Brea, CA, USA), in triplicate. Data about cell viability were plotted in GraphPad Prism 8.0 software (GraphPad Software, San Diego, CA, USA) to draw dose-response curve and to calculate IC50.

The next data set has as its system SKBR3 cells. The data set is described as above. Type of data set: cell-based. The conditions noted are these: Homo sapiens, SK-BR-3; SKBR3, 72 h. On the procedure:
as §1

Experiment in data set [4]: as above
Type of data set: cell-based. The conditions noted are these: human, MCF10A control cells. On the procedure: as §1

For a further data set, the system named is MCF7 cells. The description is as above. To be noted: Homo sapiens, MCF7, 72 h. Type of data set: cell-based. Here is the method:
as §1

A further data set deals with DDX3X. More on the design: method as in earlier work. The conditions noted are these: in vitro enzymatic activity; read-out: IC50, DDX3X helicase activity; cited from earlier work.

Molecules are shown by their SMILES. Several values for one entry are separate records, joined by “and”; a condition that tells them apart may be missing. Equal entries are not always repeated.

A word on the IC50: it is the concentration that gives 50% inhibition. Turning to `CCCCc1cn(-c2ccc(NC(=O)Nc3ccccc3C(F)(F)F)cc2)nn1` [FHP01], in data set [1] (45 mg/kg i.p. 3 times a week, all the treatment period), the animal body weight entry is recorded as “No loss of animal body weight”. For the same compound, the “histology of liver, brain, spleen and kidney” value in data set [1] (after 4 weeks of i.p. treatment, 45 mg/kg) is “did not show any sign of toxicity”. The mean tumor volume in data set [2] (Day 0 of the treatment) is listed as 25.49± 4.58 mm^3; in data set [2] (Day 18, control 73.40 ± 9.72), 24.18 ± 4.44 mm^3; in data set [2] (Day 28, control 129.85 ± 21.39), 37.23 ± 11.45 mm^3. In addition, the “effect size, decrease in tumor growth (control/treated)” value in data set [2] (end of the procedure, 45 mg/kg i.p.) is given as “about 4 fold”. Further, in [3] (Ctrl 0.64, 1.00, 0.60), the “DDX3X : ERK2 in tumors” value was 0.01 (2×) and 0.13. Further, in data set [3] (Ctrl 0.64, 1.00, 0.89), the “β-Catenin : ERK2 in tumors” value was 0.64 and 0.79 and 0.70. In addition, in the data set on PBMCs, the “effect on viability of normal PBMC” value is on record as “no effect”. Besides, the IC50 is 10.6 µM in the data set with T47D cells, 13.5 µM in the data set with SKBR3 cells, 12.4 µM in the data set with MCF7 cells and 0.3 µM in the data set on DDX3X. The IC50 at 72 h in data set [4] is 28.7 µM.
